Measurements published in ChEMBL document CHEMBL5653615 (J Biol Chem, 2013).

How the values were obtained:
[1] = target: Ephrin type-A receptor 5 (Homo sapiens) (UniProt P54756); test: Inhibition of human EPHA5 at 18.6 nM by HotSpot assay relative to control
[2] = target: T1, Tyrosine-protein kinase ITK/TSK (Homo sapiens) (UniProt Q08881); test: Inhibition of human ITK at 18.6 nM by HotSpot assay relative to control
T1 sequence (whole entry): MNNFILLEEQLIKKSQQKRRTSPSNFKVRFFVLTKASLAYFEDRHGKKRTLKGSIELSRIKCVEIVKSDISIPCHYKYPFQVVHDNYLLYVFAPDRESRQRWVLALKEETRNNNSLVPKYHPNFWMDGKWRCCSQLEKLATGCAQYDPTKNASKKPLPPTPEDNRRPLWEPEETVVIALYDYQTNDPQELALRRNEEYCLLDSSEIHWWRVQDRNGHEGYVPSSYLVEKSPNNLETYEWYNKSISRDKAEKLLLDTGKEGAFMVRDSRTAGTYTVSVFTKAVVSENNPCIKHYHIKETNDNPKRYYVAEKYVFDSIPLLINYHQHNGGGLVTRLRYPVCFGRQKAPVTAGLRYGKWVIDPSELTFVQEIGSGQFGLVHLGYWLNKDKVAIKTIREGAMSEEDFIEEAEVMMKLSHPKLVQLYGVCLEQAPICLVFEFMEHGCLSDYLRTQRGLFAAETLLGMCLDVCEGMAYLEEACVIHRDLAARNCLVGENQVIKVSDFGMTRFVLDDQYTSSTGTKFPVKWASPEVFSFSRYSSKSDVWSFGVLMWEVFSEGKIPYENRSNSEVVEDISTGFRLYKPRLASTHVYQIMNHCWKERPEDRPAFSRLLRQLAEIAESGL

[3] = target: Protein kinase C delta type (Homo sapiens) (UniProt Q05655); test: Inhibition of human PKCd at 18.6 nM by HotSpot assay relative to control
Protein kinase C delta type (Homo sapiens), sequence (Q05655 whole entry, looked up): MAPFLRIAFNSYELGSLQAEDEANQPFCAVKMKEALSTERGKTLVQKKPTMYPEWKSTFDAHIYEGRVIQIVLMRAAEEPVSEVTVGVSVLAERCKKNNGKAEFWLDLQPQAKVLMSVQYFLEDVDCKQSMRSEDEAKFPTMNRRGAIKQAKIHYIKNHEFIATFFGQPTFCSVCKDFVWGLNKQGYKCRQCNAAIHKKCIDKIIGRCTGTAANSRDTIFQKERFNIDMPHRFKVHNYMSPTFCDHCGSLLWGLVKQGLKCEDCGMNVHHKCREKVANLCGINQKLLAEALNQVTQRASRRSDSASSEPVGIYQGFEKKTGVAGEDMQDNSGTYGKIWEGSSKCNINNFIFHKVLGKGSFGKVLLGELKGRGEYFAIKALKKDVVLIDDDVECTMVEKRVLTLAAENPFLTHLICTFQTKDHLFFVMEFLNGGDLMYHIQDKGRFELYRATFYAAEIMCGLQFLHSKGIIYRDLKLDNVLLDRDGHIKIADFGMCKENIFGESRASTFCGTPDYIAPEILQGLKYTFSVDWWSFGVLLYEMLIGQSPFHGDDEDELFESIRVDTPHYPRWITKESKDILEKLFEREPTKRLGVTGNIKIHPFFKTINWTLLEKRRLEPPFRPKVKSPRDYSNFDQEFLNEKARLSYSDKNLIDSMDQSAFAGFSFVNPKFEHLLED

[4] = target: Serine/threonine-protein kinase PLK3 (Homo sapiens) (UniProt Q9H4B4); test: Inhibition of human PLK3 at 18.6 nM by HotSpot assay relative to control
Serine/threonine-protein kinase PLK3 (Homo sapiens), sequence (Q9H4B4 whole entry, looked up): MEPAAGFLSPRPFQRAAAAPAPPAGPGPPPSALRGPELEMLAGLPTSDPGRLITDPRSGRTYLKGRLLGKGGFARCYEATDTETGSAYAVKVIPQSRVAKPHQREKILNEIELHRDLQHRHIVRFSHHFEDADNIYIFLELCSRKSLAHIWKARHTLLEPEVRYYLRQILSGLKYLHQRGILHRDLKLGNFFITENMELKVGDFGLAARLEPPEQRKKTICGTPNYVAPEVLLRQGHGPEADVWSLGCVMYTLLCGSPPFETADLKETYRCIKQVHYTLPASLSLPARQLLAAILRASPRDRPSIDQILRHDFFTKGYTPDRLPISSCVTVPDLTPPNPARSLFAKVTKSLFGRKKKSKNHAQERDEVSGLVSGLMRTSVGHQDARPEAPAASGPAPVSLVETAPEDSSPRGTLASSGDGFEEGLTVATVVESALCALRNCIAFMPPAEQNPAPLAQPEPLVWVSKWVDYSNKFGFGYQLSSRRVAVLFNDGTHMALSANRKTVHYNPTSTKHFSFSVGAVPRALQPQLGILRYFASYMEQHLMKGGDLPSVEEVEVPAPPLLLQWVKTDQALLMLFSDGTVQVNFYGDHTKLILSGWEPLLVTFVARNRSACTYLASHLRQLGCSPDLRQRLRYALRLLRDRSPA

[5] = target: T2, Dual serine/threonine and tyrosine protein kinase (Homo sapiens) (UniProt Q6XUX3); test: Inhibition of human RIPK5 at 18.6 nM by HotSpot assay relative to control
T2 sequence (whole entry): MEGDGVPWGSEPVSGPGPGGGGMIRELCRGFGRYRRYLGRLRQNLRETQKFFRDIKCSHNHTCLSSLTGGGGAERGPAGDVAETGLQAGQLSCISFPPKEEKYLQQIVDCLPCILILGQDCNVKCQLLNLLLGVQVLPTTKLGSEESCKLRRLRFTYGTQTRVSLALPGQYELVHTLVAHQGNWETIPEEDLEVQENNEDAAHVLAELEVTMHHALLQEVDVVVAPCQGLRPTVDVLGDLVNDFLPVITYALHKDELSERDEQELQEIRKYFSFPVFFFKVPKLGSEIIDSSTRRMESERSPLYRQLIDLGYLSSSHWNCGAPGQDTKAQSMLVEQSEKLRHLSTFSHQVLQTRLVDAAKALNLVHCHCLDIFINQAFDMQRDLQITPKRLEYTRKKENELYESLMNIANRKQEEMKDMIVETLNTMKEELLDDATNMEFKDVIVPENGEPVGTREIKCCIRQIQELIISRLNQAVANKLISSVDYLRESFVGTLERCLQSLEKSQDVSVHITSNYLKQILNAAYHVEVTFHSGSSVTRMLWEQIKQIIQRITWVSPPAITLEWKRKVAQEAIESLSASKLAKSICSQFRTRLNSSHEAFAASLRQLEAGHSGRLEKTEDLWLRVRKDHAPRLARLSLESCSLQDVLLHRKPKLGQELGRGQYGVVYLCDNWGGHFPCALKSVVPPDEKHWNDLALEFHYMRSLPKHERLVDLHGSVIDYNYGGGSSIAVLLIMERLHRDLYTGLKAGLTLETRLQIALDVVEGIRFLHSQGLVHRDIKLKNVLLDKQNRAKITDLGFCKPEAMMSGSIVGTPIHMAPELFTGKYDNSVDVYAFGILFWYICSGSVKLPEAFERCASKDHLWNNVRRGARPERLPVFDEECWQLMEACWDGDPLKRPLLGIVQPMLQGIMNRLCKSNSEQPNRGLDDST

[6] = target: Proto-oncogene tyrosine-protein kinase ROS (Homo sapiens) (UniProt P08922); test: Inhibition of human ROS1 at 18.6 nM by HotSpot assay relative to control
[7] = target: Ribosomal protein S6 kinase alpha-2 (Homo sapiens) (UniProt Q15349); test: Inhibition of human RSK3 at 18.6 nM by HotSpot assay relative to control
Ribosomal protein S6 kinase alpha-2 (Homo sapiens), sequence (Q15349 whole entry): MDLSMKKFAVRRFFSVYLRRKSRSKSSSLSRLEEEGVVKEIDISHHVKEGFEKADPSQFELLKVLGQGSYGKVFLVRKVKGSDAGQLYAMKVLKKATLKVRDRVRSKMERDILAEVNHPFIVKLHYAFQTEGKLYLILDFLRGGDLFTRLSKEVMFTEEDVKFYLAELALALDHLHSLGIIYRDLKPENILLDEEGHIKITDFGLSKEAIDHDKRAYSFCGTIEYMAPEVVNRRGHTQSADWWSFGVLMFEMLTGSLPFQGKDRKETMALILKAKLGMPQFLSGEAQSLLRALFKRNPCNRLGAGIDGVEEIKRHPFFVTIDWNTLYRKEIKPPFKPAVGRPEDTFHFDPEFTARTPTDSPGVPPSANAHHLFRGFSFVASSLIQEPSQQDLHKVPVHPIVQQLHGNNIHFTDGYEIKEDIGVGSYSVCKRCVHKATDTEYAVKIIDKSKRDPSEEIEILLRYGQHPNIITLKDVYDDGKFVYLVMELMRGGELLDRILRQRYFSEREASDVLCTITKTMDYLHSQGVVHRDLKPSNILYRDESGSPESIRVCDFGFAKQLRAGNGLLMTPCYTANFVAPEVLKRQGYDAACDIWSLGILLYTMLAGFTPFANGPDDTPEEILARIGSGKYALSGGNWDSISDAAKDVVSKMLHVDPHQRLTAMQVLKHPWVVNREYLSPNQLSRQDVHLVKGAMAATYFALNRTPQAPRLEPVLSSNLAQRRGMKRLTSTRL

[8] = target: TGF-beta receptor type-2 (Homo sapiens) (UniProt P37173); test: Inhibition of human TGFBR2 at 18.6 nM by HotSpot assay relative to control
[9] = target: Tyrosine-protein kinase ABL1 (Homo sapiens) (UniProt P00519); test: Inhibition of human ABL1 at 1.82 nM by HotSpot assay relative to control
Tyrosine-protein kinase ABL1 (Homo sapiens), sequence (P00519 whole entry): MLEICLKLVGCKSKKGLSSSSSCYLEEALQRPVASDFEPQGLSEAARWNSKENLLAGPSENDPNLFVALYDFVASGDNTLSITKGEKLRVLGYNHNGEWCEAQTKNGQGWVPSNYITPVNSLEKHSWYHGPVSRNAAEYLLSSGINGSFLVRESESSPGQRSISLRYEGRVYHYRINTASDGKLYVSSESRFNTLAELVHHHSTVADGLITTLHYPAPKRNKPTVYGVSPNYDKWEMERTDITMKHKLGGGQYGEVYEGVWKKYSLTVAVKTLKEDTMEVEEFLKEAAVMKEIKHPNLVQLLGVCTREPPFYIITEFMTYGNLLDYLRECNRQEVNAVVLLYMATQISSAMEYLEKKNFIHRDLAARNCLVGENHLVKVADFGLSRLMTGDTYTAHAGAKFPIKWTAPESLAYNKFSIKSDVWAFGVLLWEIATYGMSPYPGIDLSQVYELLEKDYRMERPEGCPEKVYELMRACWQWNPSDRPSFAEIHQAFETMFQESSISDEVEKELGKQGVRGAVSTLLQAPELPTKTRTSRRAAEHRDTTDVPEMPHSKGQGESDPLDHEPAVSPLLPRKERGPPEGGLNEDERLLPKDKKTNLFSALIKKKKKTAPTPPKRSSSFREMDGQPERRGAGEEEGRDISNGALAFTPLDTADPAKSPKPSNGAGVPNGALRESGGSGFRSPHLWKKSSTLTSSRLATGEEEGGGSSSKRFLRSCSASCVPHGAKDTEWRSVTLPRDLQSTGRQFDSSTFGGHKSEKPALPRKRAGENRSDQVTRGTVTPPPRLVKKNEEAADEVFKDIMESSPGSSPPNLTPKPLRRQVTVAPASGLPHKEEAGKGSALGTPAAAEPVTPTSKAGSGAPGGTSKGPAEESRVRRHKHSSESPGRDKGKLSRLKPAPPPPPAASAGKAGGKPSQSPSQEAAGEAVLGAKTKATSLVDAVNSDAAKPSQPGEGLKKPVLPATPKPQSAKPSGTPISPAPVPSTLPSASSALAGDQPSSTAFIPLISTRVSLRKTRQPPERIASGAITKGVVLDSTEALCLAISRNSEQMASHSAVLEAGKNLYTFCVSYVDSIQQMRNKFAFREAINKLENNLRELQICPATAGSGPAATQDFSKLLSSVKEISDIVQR

[10] = target: T3, Dual specificity tyrosine-phosphorylation-regulated kinase 2 (Homo sapiens) (UniProt Q92630); test: Inhibition of human DYRK2 at 1.82 nM by HotSpot assay relative to control
T3 sequence (whole entry): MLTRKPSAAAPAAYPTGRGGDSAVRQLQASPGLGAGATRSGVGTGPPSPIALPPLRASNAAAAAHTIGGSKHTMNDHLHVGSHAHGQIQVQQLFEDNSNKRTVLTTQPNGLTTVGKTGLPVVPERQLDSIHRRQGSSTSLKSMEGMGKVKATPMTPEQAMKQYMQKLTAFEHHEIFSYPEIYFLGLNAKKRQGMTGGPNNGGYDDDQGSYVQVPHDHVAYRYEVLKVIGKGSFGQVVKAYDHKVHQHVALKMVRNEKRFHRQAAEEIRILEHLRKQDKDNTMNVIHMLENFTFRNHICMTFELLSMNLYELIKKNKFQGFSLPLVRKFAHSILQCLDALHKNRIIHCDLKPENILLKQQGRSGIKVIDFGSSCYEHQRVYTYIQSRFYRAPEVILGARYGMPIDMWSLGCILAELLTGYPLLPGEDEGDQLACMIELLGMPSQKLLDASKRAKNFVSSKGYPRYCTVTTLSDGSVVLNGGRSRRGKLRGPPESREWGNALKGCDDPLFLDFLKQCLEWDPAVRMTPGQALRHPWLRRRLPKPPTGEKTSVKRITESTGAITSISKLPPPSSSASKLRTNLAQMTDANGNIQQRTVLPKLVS

[11] = target: MAP/microtubule affinity-regulating kinase 3 (Homo sapiens) (UniProt P27448); test: Inhibition of human MARK3 at 1.82 nM by HotSpot assay relative to control
MAP/microtubule affinity-regulating kinase 3 (Homo sapiens), sequence (P27448 whole entry, looked up): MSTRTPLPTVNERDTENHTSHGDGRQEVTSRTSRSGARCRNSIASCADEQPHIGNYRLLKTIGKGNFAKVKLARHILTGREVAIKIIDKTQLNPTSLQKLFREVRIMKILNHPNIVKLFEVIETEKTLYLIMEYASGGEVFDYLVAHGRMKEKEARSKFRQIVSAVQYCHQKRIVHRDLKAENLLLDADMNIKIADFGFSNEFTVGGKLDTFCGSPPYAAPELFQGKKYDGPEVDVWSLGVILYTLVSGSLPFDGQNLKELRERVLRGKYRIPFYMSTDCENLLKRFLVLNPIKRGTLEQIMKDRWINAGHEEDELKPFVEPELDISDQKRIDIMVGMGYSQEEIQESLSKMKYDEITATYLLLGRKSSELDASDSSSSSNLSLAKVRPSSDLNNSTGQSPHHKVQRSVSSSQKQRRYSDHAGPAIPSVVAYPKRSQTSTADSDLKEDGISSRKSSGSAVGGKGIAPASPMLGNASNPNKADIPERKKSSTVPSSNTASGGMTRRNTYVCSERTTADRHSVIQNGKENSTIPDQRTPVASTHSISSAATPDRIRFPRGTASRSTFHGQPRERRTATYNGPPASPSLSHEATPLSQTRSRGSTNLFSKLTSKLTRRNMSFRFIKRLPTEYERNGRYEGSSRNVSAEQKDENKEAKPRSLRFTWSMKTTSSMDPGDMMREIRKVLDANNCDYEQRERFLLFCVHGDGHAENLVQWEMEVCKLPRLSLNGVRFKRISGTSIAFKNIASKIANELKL

[12] = target: Protein kinase C beta type (Homo sapiens) (UniProt P05771); test: Inhibition of human PKCb2 at 1.82 nM by HotSpot assay relative to control
Protein kinase C beta type (Homo sapiens), sequence (P05771 2-671 limits assumed): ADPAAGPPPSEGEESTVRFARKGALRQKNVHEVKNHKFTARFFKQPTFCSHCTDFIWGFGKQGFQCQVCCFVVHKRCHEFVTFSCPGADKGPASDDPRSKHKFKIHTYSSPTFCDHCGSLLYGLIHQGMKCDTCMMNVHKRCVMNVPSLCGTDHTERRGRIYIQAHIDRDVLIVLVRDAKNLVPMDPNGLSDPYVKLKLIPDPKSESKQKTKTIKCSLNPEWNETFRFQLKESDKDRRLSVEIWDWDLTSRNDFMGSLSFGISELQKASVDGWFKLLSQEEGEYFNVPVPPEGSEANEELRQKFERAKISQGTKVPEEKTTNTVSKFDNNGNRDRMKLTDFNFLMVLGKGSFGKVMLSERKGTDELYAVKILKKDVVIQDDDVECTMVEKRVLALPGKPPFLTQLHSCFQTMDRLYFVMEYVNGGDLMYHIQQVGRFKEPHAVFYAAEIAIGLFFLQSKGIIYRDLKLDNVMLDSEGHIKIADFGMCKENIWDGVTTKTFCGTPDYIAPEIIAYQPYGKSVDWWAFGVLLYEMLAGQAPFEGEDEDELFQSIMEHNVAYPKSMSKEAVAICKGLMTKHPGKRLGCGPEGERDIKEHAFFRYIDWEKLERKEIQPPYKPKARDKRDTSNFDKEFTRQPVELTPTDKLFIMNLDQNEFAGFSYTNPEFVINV

[13] = target: Serine/threonine-protein kinase PLK3 (Homo sapiens) (UniProt Q9H4B4); test: Inhibition of human PLK3 at 1.82 nM by HotSpot assay relative to control

C[C@]1(O)C[C@@H](c2nc(-c3ccc4ccc(-c5ccccc5)nc4c3)c3c(N)nccn32)C1
inhibition [1]: 0.67%
inhibition [2]: -7.85%
inhibition [3]: -2%
inhibition [4]: 3.09%
inhibition [5]: -0.63%
inhibition [6]: -1.08%
inhibition [7]: -2.23%
inhibition [8]: 8.98%

C[C@@]1(C(=O)Nc2ccc(F)nc2)CCCN1c1nc(Nc2cc(C3CC3)n[nH]2)c2cccn2n1
inhibition [9]: 3.21%
inhibition [10]: 0%
inhibition [11]: 1.57%
inhibition [12]: -3.58%
inhibition [13]: 2.72%
